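Growth conditions: 96-well plates. Treatment: test compound, 48 hours, 5 concentrations. Analysis: linear interpolation between bracketing concentrations; unreached endpoints set to highest concentration. Here, GI50 denotes the concentration required for 50% inhibition of growth.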 Active and inactive are the calls of the source. Cut-off read from the data, not from the text of the source: active = GI50 up to about 1.1 µM and inactive = higher.
What was measured:
Experiment in all cases: NCI tumour cell line growth inhibition, 48 h
[1] = system: MOLT-4
[2] = system: SK-MEL-28
[3] = system: OVCAR-4
[4] = system: A549
[5] = system: 786-0
[6] = system: M19-MEL
[7] = system: NCI-H226
[8] = system: SNB-19
[9] = system: KM12
[10] = system: EKVX
[11] = system: SF-295
[12] = system: Malme-3M
[13] = system: SK-MEL-5
[14] = system: CCRF-CEM
[15] = system: SR
[16] = system: LOX IMVI
[17] = system: UACC-257
[18] = system: HCT-116
[19] = system: DMS-273
[20] = system: SK-MEL-2
[21] = system: SNB-78
[22] = system: COLO 205
[23] = system: RPMI-8226
[24] = system: OVCAR-8
[25] = system: DLD-1
[26] = system: SF-268
[27] = system: SN12C
[28] = system: K562
[29] = system: DMS-114
[30] = system: HCT-15
[31] = system: SNB-75
[32] = system: TK-10
[33] = system: SW-620
[34] = system: SF-539
[35] = system: HOP-62
[36] = system: NCI-H522
[37] = system: XF498
[38] = system: OVCAR-3
[39] = system: NCI-H23
[40] = system: M14
[41] = system: OVCAR-5
[42] = system: HT-29
[43] = system: HL-60
[44] = system: CAKI-1
[45] = system: UO-31
[46] = system: HOP-18
[47] = system: NCI-H460
[48] = system: ACHN
[49] = system: HCC 2998
[50] = system: UACC-62
[51] = system: U-251
[52] = system: KM-20L2
[53] = system: RXF 393
[54] = system: LXFL 529
[55] = system: SK-OV-3
[56] = system: HOP-92
[57] = system: IGROV-1
[58] = system: A498

With `Cc1cc([N+](=O)[O-])c(C)c2c1[nH]c1ccc(Cl)cc12` the GI50 [1] was 23.6 µM (inactive), the GI50 [2] was > 100 µM (inactive) and the GI50 [3] was > 100 µM (inactive). For the same compound, the GI50 [4] was > 100 µM (inactive), the GI50 [5] was > 100 µM (inactive) and the GI50 [6] was > 100 µM (inactive). For the same compound, the GI50 [7] was > 100 µM (inactive), the GI50 [8] was > 100 µM (inactive) and the GI50 [9] was > 100 µM (inactive). For the same compound, the GI50 [10] was > 100 µM (inactive), the GI50 [11] was > 100 µM (inactive) and the GI50 [12] was > 100 µM (inactive). The GI50 [13] was > 100 µM (inactive), the GI50 [14] was 23.2 µM (inactive) and the GI50 [15] was 45.7 µM (inactive). The GI50 [16] was > 100 µM (inactive), the GI50 [17] was > 100 µM (inactive) and the GI50 [18] was > 100 µM (inactive). The GI50 [19] was 63.1 µM (inactive), the GI50 [20] was > 100 µM (inactive) and the GI50 [21] was > 100 µM (inactive). For the same compound, the GI50 [22] was 71 µM (inactive), the GI50 [23] was 50 µM (inactive) and the GI50 [24] was > 100 µM (inactive). For the same compound, the GI50 [25] was > 10 µM (inactive), the GI50 [26] was > 100 µM (inactive) and the GI50 [27] was > 100 µM (inactive). For the same compound, the GI50 [28] was 26.4 µM (inactive), the GI50 [29] was > 100 µM (inactive) and the GI50 [30] was 96.2 µM. The GI50 [31] was > 100 µM (inactive), the GI50 [32] was 84.7 µM (inactive) and the GI50 [33] was 71.9 µM (inactive). The GI50 [34] was > 100 µM (inactive), the GI50 [35] was > 100 µM (inactive) and the GI50 [36] was 18.8 µM (inactive). The GI50 [37] was > 100 µM (inactive), the GI50 [38] was 38.9 µM (inactive) and the GI50 [39] was > 100 µM (inactive). The GI50 [40] was > 100 µM (inactive), the GI50 [41] was > 100 µM (inactive) and the GI50 [42] was 89.5 µM (inactive). The GI50 [43] was 58.7 µM (inactive), the GI50 [44] was > 100 µM (inactive) and the GI50 [45] was > 100 µM (inactive). The GI50 [46] was > 100 µM (inactive), the GI50 [47] was > 100 µM (inactive) and the GI50 [48] was > 100 µM (inactive). For the same compound, the GI50 [49] was > 100 µM (inactive).

In the case of `O=C1C(=Cc2ccc([N+](=O)[O-])o2)C(=O)N(CCc2ccccc2)S(=O)(=O)N1CCc1ccccc1`, the GI50 [1] is reported as 19.2 µM (inactive), the GI50 [2] is reported as 14.6 µM (inactive) and the GI50 [3] is reported as 16.3 µM (inactive). For the same compound, the GI50 [4] was > 100 µM (inactive), the GI50 [5] was 20.3 µM (inactive) and the GI50 [6] was 17.7 µM (inactive). The GI50 [7] was 24.7 µM (inactive), the GI50 [8] was > 100 µM (inactive) and the GI50 [9] was > 100 µM (inactive). The GI50 [10] was > 100 µM (inactive), the GI50 [11] was > 100 µM (inactive) and the GI50 [12] was 17.1 µM (inactive). For the same compound, the GI50 [13] was 18.7 µM (inactive), the GI50 [14] was 27.7 µM (inactive) and the GI50 [15] was 14.3 µM (inactive). The GI50 [50] was 16.9 µM (inactive), the GI50 [51] was > 100 µM (inactive) and the GI50 [16] was 18.7 µM (inactive). The GI50 [52] was > 100 µM (inactive), the GI50 [17] was 63 µM (inactive) and the GI50 [18] was 16.3 µM (inactive). The GI50 [19] was 32.7 µM (inactive), the GI50 [20] was 16.6 µM (inactive) and the GI50 [21] was 26.1 µM (inactive). The GI50 [22] was 20.2 µM (inactive), the GI50 [23] was 27.4 µM (inactive) and the GI50 [24] was 28.9 µM (inactive). For the same compound, the GI50 [25] was 17.6 µM (inactive), the GI50 [26] was 21.8 µM (inactive) and the GI50 [27] was 50.4 µM (inactive). For the same compound, the GI50 [28] was 37 µM (inactive), the GI50 [30] was 16.3 µM and the GI50 [31] was 37.9 µM (inactive). The GI50 [32] was 42.2 µM (inactive), the GI50 [33] was 19.5 µM (inactive) and the GI50 [53] was 19.5 µM (inactive). For the same compound, the GI50 [34] was 38.1 µM (inactive), the GI50 [54] was 16.8 µM (inactive) and the GI50 [36] was 19.9 µM (inactive). The GI50 [37] was 20.4 µM (inactive), the GI50 [38] was 17.4 µM (inactive) and the GI50 [39] was 16.8 µM (inactive). The GI50 [40] was 15.4 µM (inactive), the GI50 [41] was > 100 µM (inactive) and the GI50 [42] was 33.5 µM (inactive). The GI50 [55] was > 100 µM (inactive), the GI50 [43] was 12.6 µM (inactive) and the GI50 [56] was 19.3 µM (inactive). For the same compound, the GI50 [45] was 45.3 µM (inactive), the GI50 [46] was 42.2 µM (inactive) and the GI50 [57] was > 100 µM (inactive). For the same compound, the GI50 [47] was > 100 µM (inactive), the GI50 [48] was 17.1 µM (inactive) and the GI50 [49] was > 100 µM (inactive).

For `Clc1ccc(C[P+](c2ccccc2)(c2ccccc2)c2ccccc2)cc1Cl`, the GI50 [2] was 3.67 µM (inactive), the GI50 [3] was 4.4 µM (inactive) and the GI50 [4] was 4.49 µM (inactive). The GI50 [5] was 4.85 µM (inactive), the GI50 [6] was 1.79 µM (inactive) and the GI50 [7] was 2.8 µM (inactive). For the same compound, the GI50 [8] was 3.21 µM (inactive), the GI50 [9] was 2.69 µM (inactive) and the GI50 [11] was 10.3 µM (inactive). For the same compound, the GI50 [12] was 2.53 µM (inactive), the GI50 [13] was 1.42 µM (inactive) and the GI50 [14] was 3.07 µM (inactive). For the same compound, the GI50 [15] was 2.61 µM (inactive), the GI50 [50] was 1.49 µM (inactive) and the GI50 [51] was 1.63 µM (inactive). For the same compound, the GI50 [16] was 1.55 µM (inactive), the GI50 [52] was 2.94 µM (inactive) and the GI50 [17] was 2.14 µM (inactive). For the same compound, the GI50 [18] was 1.93 µM (inactive), the GI50 [19] was 2.01 µM (inactive) and the GI50 [20] was 2.15 µM (inactive). For the same compound, the GI50 [21] was 25.8 µM (inactive), the GI50 [58] was 12.6 µM (inactive) and the GI50 [22] was 1.55 µM (inactive). The GI50 [24] was 3.05 µM (inactive), the GI50 [25] was 9.2 µM (inactive) and the GI50 [26] was 3.22 µM (inactive). The GI50 [27] was 4.04 µM (inactive), the GI50 [28] was 4.31 µM (inactive) and the GI50 [29] was 1.52 µM (inactive). For the same compound, the GI50 [30] was 17 µM, the GI50 [31] was 1.77 µM (inactive) and the GI50 [32] was 5.05 µM (inactive). For the same compound, the GI50 [33] was 2.93 µM (inactive), the GI50 [34] was 4.4 µM (inactive) and the GI50 [35] was 9.08 µM (inactive). For the same compound, the GI50 [36] was 1.89 µM (inactive), the GI50 [37] was 1.32 µM (inactive) and the GI50 [38] was 2.06 µM (inactive). For the same compound, the GI50 [39] was 2.62 µM (inactive), the GI50 [40] was 2.6 µM (inactive) and the GI50 [41] was 5.27 µM (inactive). The GI50 [42] was 1.91 µM (inactive), the GI50 [55] was 7.35 µM (inactive) and the GI50 [43] was 1.03 µM (active). The GI50 [56] was 1.62 µM (inactive), the GI50 [44] was 2.57 µM (inactive) and the GI50 [46] was 2.1 µM (inactive). For the same compound, the GI50 [57] was 2.51 µM (inactive), the GI50 [47] was 2.34 µM (inactive) and the GI50 [48] was 13.1 µM (inactive). For the same compound, the GI50 [49] was 2.46 µM (inactive).

From ChEMBL document CHEMBL1201862, “PubChem BioAssay data set” (2004)
